Format in all cases: biochemical
One experiment addresses B-Raf (V600E) (Homo sapiens (Human), UniProt P15056, V600E). The experiment in a line: Raf IC50 assay, TR-FRET, B-Raf (V600E). Particulars: 0.1 mM ATP; read-out: IC50 BRAF-V600E. A general note: In TR-FRET formats the signal depends on donor and acceptor labels being close together.
A further experiment addresses C-Raf (Y340D/Y341D) (Homo sapiens (Human), UniProt P04049, Y340D/Y341D). The experiment in a line: Raf IC50 assay, TR-FRET, C-Raf (Y340D/Y341D). Conditions: 0.1 mM ATP. On the procedure: Compounds disclosed herein were tested against B-Raf (V600E) (PV3849, from Invitrogen) or C-Raf (Y340D/Y341D) (PV3805, from Invitrogen) in a time-resolved fluorescence energy transfer assay. The assay was carried out in reactions (10 μL) containing 0.0625 nM B-Raf or 0.5 nM C-Raf, 25 mM Tris pH7.4, 10 mM MgCl2, 0.5 mM EGTA, 0.5 mM Na3VO4, 5 mM beta-glycerophosphate, 0.01% Triton X-100, 2.5 mM DTT, 0.1% BSA, 0.1 mM ATP, 13.7 nM GST-tagged MEK1 (Full-length protein with K97R mutation, recombinant protein purified from bacterial expression system) and 0-5 μM compounds disclosed herein (final concentration of 1% DMSO). The enzyme was incubated with the compounds disclosed herein at room temperature for 60 minutes and the reactions were initiated by the addition of ATP and GST-MEK1. After reaction at room temperature for 60 minutes, an equal volume of stop/detection solution was added according to the manufacture's instruction (CisBio Bioassays). The stop/detection solution contained Eu^3+ cryptate-conjugated anti-phospho MEK1/2 (Ser217/221) rabbit polyclonal antibody and d2-conjugated anti-GST mouse monoclonal antibody in buffer containing 25 mM Tris pH7.4, 400 mM KF, 50 mM EDTA, 0.01% BSA and 0.01% Triton X-100. Plates were sealed and incubated at room temperature for 2 hours, and the TR-FRET signals (ratio of fluorescence emission at 665 nm over emission at 620 nm with excitation at 337 nm wavelength) were recorded on a PHERAstar FS plate reader (BMG Labtech). Phosphorylation of MEK1 led to the binding of anti-phospho-MEK1/2 antibody to GST-MEK1 protein that place fluorescent donor (Eu^3+ crypate) in close proximity to the accepter d2 on the anti-GST antibody, thus resulting in a high degree of fluorescence resonance energy transfer from the donor fluorophore (at 620 nm) to the acceptor fluorophore (at 665 nm). […] The IC50 for each compound was derived from fitting the dose-response % inhibition data to the four-parameter logistic model by Graphpad Prism software.

Another experiment concerns the target wild type B-Raf (Homo sapiens (Human), UniProt P15056). The experiment in a line: WT BRaf IC50 assay, TR-FRET. On the procedure:
WT BRaf IC50 Assay Protocol
Compounds disclosed herein were tested against wild type B-Raf (PV3848, from Invitrogen) in a time-resolved fluorescence energy transfer assay. […] The enzyme was incubated with the compounds disclosed herein at room temperature for 120 minutes and the reactions were initiated by the addition of ATP and GST-MEK1. After incubating at room temperature for 60 minutes, an equal volume of stop buffer containing 25 mM Tris pH7.4, 400 mM KF, 50 mM EDTA, 0.1% BSA, 0.01% Triton X-100, 1 test of Eu3+Cryptate-conjugated rabbit polyclonal antibody anti-Phospho MEK1/2 (Ser217/221) and 1 test of d2-conjugated mouse monoclonal antibody anti-glutathione S-transferase was added to stop the reactions. Plates were sealed and incubated at room temperature for 1.5 hours, and then the TR-FRET signals were read on BMG PHERAstar FS instrument. The IC50 for each compound was calculated by non linear regression by Graphpad Prism software.

The target of a further experiment is WT EGFR kinase domain (Homo sapiens (Human), UniProt P00533). The experiment in a line: EGFR enzymatic assay, TR-FRET, WT EGFR.
WT EGFR kinase domain, sequence (P00533 669-1210): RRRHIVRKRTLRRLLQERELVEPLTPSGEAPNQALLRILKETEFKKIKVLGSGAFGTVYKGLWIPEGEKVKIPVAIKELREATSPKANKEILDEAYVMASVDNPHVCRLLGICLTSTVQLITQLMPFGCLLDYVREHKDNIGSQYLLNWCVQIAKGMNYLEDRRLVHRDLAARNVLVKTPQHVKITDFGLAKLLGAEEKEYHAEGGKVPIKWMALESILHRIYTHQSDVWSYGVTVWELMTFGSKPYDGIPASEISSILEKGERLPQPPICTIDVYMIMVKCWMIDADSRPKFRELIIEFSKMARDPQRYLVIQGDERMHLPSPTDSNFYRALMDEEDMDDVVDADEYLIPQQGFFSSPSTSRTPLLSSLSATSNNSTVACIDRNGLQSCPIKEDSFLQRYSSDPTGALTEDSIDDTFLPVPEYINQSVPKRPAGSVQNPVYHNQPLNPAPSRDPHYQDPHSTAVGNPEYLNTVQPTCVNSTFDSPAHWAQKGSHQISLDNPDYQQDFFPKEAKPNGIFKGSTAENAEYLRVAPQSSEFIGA
The target of the next experiment is EGFR L858R kinase domain (Homo sapiens (Human), UniProt P00533, L858R). The experiment in a line: EGFR enzymatic assay, TR-FRET, EGFR L858R.
EGFR L858R kinase domain, sequence (P00533 669-1210 L858R): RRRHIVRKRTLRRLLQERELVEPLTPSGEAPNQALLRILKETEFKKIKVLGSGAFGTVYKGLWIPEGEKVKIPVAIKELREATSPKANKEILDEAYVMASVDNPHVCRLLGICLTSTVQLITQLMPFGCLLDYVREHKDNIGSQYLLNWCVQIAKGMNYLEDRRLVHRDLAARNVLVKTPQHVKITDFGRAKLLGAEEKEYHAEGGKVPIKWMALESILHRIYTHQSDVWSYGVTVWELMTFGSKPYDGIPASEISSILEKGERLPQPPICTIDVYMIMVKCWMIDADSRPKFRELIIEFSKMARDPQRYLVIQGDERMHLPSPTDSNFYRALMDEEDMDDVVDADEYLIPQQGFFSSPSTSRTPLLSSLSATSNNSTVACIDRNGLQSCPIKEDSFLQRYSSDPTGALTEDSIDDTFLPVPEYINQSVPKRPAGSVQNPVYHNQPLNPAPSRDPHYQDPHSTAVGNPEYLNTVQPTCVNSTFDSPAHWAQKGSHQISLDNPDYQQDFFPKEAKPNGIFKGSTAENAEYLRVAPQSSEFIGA
Experiment [1] deals with EGFR T790M/L858R kinase domain (Homo sapiens (Human), UniProt P00533, L858R/T790M). The experiment in a line: EGFR enzymatic assay, TR-FRET, EGFR T790M/L858R.
EGFR T790M/L858R kinase domain, sequence (P00533 669-1210 T790M/L858R): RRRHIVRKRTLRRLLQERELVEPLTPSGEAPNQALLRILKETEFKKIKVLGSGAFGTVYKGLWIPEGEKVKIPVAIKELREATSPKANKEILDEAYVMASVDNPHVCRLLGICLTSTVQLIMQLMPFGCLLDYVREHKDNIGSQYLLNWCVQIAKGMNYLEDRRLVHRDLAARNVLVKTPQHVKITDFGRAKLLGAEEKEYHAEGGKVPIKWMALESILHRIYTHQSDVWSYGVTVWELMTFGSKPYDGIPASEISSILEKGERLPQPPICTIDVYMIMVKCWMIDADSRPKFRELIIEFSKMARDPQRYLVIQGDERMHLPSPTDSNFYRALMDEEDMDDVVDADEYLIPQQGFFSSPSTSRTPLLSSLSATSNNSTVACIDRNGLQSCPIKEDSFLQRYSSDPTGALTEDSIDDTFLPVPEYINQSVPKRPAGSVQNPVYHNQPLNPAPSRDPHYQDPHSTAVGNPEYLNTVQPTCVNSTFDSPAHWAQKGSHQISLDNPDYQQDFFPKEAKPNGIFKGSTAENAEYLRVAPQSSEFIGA
[2] abbreviates: Km ATP ([…] ATP), read-out: IC50 Braf-WT Km ATP.

The source of these data is patent publication US9670231B2, “Fused tricyclic amide compounds as multiple kinase inhibitors” (BEIGENE, LTD., priority 2013, dated 2017).

SMILES strings stand for the structures. Like-named read-outs stand apart in the source and are kept apart here.

By IC50 is commonly meant the concentration that gives 50% inhibition.

C-Raf (Y340D/Y341D), sequence (P04049 whole entry Y340D/Y341D): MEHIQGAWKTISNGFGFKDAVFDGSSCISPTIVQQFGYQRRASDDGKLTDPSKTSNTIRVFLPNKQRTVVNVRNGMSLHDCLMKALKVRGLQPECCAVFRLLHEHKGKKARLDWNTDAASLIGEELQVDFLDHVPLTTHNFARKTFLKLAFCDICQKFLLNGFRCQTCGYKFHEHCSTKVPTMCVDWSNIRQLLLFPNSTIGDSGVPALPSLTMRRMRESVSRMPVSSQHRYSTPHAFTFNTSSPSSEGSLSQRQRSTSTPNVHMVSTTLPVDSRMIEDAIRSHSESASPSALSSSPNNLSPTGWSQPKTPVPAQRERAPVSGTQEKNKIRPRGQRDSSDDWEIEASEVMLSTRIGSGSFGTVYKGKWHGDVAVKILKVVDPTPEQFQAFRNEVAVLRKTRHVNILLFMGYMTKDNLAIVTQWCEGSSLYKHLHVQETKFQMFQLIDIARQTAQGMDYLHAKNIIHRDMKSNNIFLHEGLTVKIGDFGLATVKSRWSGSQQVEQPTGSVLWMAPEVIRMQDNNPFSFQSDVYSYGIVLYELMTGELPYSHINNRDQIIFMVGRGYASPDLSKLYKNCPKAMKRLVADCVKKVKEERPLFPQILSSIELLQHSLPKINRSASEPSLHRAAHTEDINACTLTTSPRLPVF
wild type B-Raf, sequence (P15056 whole entry): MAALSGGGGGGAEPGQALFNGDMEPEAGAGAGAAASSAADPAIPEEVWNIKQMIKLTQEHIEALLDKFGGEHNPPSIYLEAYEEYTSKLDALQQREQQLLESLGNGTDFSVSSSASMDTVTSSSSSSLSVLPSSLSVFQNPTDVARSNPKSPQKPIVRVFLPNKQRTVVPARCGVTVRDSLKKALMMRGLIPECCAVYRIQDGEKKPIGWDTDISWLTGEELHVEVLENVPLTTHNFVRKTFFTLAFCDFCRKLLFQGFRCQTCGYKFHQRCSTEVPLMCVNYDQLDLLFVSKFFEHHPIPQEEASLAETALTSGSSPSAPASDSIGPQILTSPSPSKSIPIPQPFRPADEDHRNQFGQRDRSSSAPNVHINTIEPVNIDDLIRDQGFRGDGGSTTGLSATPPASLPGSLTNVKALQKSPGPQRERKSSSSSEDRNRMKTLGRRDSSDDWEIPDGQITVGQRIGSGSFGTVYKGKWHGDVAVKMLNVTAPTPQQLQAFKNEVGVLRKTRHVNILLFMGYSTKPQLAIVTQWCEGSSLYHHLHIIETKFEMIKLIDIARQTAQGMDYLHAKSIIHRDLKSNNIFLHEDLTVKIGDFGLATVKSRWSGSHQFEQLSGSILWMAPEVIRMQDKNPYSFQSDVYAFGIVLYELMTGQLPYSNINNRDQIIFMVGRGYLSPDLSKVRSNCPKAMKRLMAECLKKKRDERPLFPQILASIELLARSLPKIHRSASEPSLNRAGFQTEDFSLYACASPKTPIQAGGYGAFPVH
B-Raf (V600E), sequence (P15056 whole entry V600E): as the sequence (P15056 whole entry) above, with V600E counted along it

In the case of `O=C1CCc2c(Oc3ccc4c(c3)[C@H]3[C@H](NC(=O)c5ccc(C(F)(F)F)cc5)[C@H]3O4)ccnc2N1` [Compound 1.40], the IC50 worked out at 8.1 nM at B-Raf (V600E); 0.64 nM on C-Raf (Y340D/Y341D); 5.7 nM on wild type B-Raf (setting [2]); 13 nM against WT EGFR kinase domain; 12 nM against EGFR L858R kinase domain; 84 nM in experiment [1].

`NC1(c2cc(C(=O)N[C@@H]3[C@H]4Oc5ccc(Oc6ccnc7c6CCC(=O)N7)cc5[C@@H]34)cc(C(F)(F)F)c2)CC1` [Compound 1.26, 3-(1-aminocyclopropyl)-N-((1S,1aS,6bS)-5-((7-oxo-5,6,7,8-tetrahydro-1,8-naphthyridin-4-yl)oxy)-1a,6b-dihydro-1H-cyclopropa[b]benzofuran-1-yl)-5-(trifluoromethyl)benzamide]: the half-maximal inhibitory concentration (IC50) on B-Raf (V600E) is 2.2 nM; at C-Raf (Y340D/Y341D), 0.52 nM; at wild type B-Raf (setting [2]), 5.7 nM; against WT EGFR kinase domain it was 1.7 nM; against EGFR L858R kinase domain, 1.3 nM; in experiment [1], 9.4 nM.

Take `CN(C)Cc1ccc(C(=O)N[C@@H]2[C@H]3Oc4ccc(Oc5ccnc6c5CCC(=O)N6)cc4[C@@H]23)cc1C(F)(F)F` [Compound 1.24]: the half-maximal inhibitory concentration (IC50) is 14 nM at B-Raf (V600E); 1.4 nM at C-Raf (Y340D/Y341D); 34 nM at wild type B-Raf (setting [2]); 2.7 nM at WT EGFR kinase domain; 1.2 nM at EGFR L858R kinase domain; 8.1 nM in experiment [1].

`O=C1CCc2c(Oc3ccc4c(c3)[C@H]3[C@H](NC(=O)c5ccc(CN6CCN7CCC[C@@H]7C6)c(C(F)(F)F)c5)[C@H]3O4)ccnc2N1` [Compound 1.12]: the 50% inhibitory concentration (IC50) came to 9 nM on B-Raf (V600E); 1.3 nM on C-Raf (Y340D/Y341D); 33 nM against wild type B-Raf (IC50 Braf-WT […] ATP, […] ATP); 9.4 nM on wild type B-Raf (setting [2]); 0.67 nM against WT EGFR kinase domain; 0.16 nM on EGFR L858R kinase domain. Inhibition in experiment [1] was half-maximal at 0.21 nM (IC50).

For `O=C1CCc2c(Oc3ccc4c(c3)[C@H]3[C@H](NC(=O)c5ccc(CN6CCCCC6)c(C(F)(F)F)c5)[C@H]3O4)ccnc2N1` [Compound 1.8], the half-maximal inhibitory concentration (IC50) was found to be 41 nM at B-Raf (V600E); 18 nM at C-Raf (Y340D/Y341D); 380 nM against wild type B-Raf (IC50 Braf-WT […] ATP, […] ATP); 96 nM at wild type B-Raf (setting [2]); 70 nM at WT EGFR kinase domain; 100 nM against EGFR L858R kinase domain. This molecule also registered a concentration for half-maximal inhibition (IC50) in experiment [1] of 504 nM.

Take `CCN1CCN(Cc2ccc(C(=O)N[C@@H]3[C@H]4Oc5ccc(Oc6ccnc7c6COC(=O)N7)cc5[C@@H]34)cc2C(F)(F)F)CC1` [Compound 2.1, 4-((4-ethylpiperazin-1-yl)methyl)-N-((1S,1aS,6bS)-5-((2-oxo-2,4-dihydro-1H-pyrido[2,3-d][1,3]oxazin-5-yl)oxy)-1a,6b-dihydro-1H-cyclopropa[b]benzofuran-1-yl)-3-(trifluoromethyl)benzamide]: the half-maximal inhibitory concentration (IC50) on B-Raf (V600E) turned out to be 16 nM; against C-Raf (Y340D/Y341D), 2.3 nM; at wild type B-Raf (setting [2]), 15 nM; against WT EGFR kinase domain, 1.8 nM; against EGFR L858R kinase domain, 0.38 nM; in experiment [1] it was 0.25 nM.

In the case of `CN(C)[C@H]1CCCN(c2ccc(C(=O)N[C@@H]3[C@H]4Oc5ccc(Oc6ccnc7c6CCC(=O)N7)cc5[C@@H]34)cc2C(F)(F)F)C1` [Compound 1.47, 4-((S)-3-(dimethylamino)piperidin-1-yl)-N-((1S,1aS,6bS)-5-((7-oxo-5,6,7,8-tetrahydro-1,8-naphthyridin-4-yl)oxy)-1a,6b-dihydro-1H-cyclopropa[b]benzofuran-1-yl)-3-(trifluoromethyl)benzamide], the IC50 is 10 nM at B-Raf (V600E); 1.2 nM on C-Raf (Y340D/Y341D); 8.5 nM at wild type B-Raf (setting [2]); 1.4 nM on WT EGFR kinase domain; 0.39 nM at EGFR L858R kinase domain; 6.6 nM in experiment [1].

In the case of `CCN1CCN(Cc2ccc(C(=O)N[C@@H]3[C@H]4Oc5ccc(Oc6ccnc7c6CCC(=O)N7)cc5[C@@H]34)cc2C(F)(F)F)CC1` [Compound 1.1, 4-((4-ethylpiperazin-1-yl)methyl)-N-((1S,1aS,6bS)-5-((7-oxo-5,6,7,8-tetrahydro-1,8-naphthyridin-4-yl)oxy)-1a,6b-dihydro-1H-cyclopropa[b]benzofuran-1-yl)-3-(trifluoromethyl)benzamide], the half-inhibitory concentration (IC50) on B-Raf (V600E) was determined as 5.3 nM; at C-Raf (Y340D/Y341D), 0.94 nM; against wild type B-Raf (IC50 Braf-WT […] ATP, […] ATP) it was 27 nM; at wild type B-Raf (setting [2]), 9.5 nM; against WT EGFR kinase domain, 0.5 nM; against EGFR L858R kinase domain, 0.11 nM. It took 0.1 nM to reach half-maximal inhibition in experiment [1] (IC50).

With `CC(C)(N)c1cc(C(=O)N[C@@H]2[C@H]3Oc4ccc(Oc5ccnc6c5CCC(=O)N6)cc4[C@@H]23)cc(C(F)(F)F)c1` [Compound 1.25, 3-(2-aminopropan-2-yl)-N-((1S,1aS,6bS)-5-((7-oxo-5,6,7,8-tetrahydro-1,8-naphthyridin-4-yl)oxy)-1a,6b-dihydro-1H-cyclopropa[b]benzofuran-1-yl)-5-(trifluoromethyl)benzamide], the 50% inhibitory concentration (IC50) is 0.71 nM at B-Raf (V600E); 0.25 nM against C-Raf (Y340D/Y341D); 3.4 nM against wild type B-Raf (IC50 Braf-WT […] ATP, […] ATP); 1.4 nM on wild type B-Raf (setting [2]); 0.48 nM on WT EGFR kinase domain; 0.15 nM on EGFR L858R kinase domain. Besides, in experiment [1], the concentration for half-maximal inhibition (IC50) stood at 1.2 nM.

Take `O=C1CCc2c(Oc3ccc4c(c3)[C@H]3[C@H](NC(=O)c5ccc(CN6CCNCC6)c(C(F)(F)F)c5)[C@H]3O4)ccnc2N1` [Compound 1.27, N-((1S,1aS,6bS)-5-((7-oxo-5,6,7,8-tetrahydro-1,8-naphthyridin-4-yl)oxy)-1a,6b-dihydro-1H-cyclopropa[b]benzofuran-1-yl)-4-(piperazin-1-ylmethyl)-3-(trifluoromethyl)benzamide]: the IC50 on B-Raf (V600E) came out at 27.2 nM; at C-Raf (Y340D/Y341D), 3 nM; against wild type B-Raf (IC50 Braf-WT […] ATP, […] ATP), 120 nM; at wild type B-Raf (setting [2]), 63 nM; on WT EGFR kinase domain it was 1.3 nM; against EGFR L858R kinase domain, 0.31 nM. The molecule also had an IC50 in experiment [1] of 0.54 nM.

Regarding `CN1CCN(c2ccc(C(=O)N[C@@H]3[C@H]4Oc5ccc(Oc6ccnc7c6CCC(=O)N7)cc5[C@@H]34)cc2C(F)(F)F)CC1` [Compound 1.49], the IC50 came to 9.5 nM at B-Raf (V600E); 2.6 nM at C-Raf (Y340D/Y341D); 13 nM at wild type B-Raf (setting [2]); 5.1 nM on WT EGFR kinase domain; 4.6 nM on EGFR L858R kinase domain; 38 nM in experiment [1].

As for `O=C1CCc2c(Oc3ccc4c(c3)[C@H]3[C@H](NC(=O)c5cccc(F)c5)[C@H]3O4)ccnc2N1` [Compound 1.39], the IC50 on B-Raf (V600E) amounted to 0.76 nM; against C-Raf (Y340D/Y341D), 0.15 nM; at wild type B-Raf (setting [2]), 0.9 nM; at WT EGFR kinase domain, 75 nM; on EGFR L858R kinase domain, 30 nM; in experiment [1], 692 nM.

`CN1CCN(Cc2ccc(C(=O)N[C@@H]3[C@H]4Oc5ccc(Oc6ccnc7c6CCC(=O)N7)cc5[C@@H]34)cc2C(F)(F)F)CC1` [Compound 1.3]: the IC50 at B-Raf (V600E) is 7.1 nM; against C-Raf (Y340D/Y341D), 1.9 nM; on wild type B-Raf (IC50 Braf-WT […] ATP, […] ATP) it was 36 nM; on wild type B-Raf (setting [2]), 14 nM; on WT EGFR kinase domain it was 0.7 nM; at EGFR L858R kinase domain, 0.079 nM. In experiment [1], the IC50 turned out to be 0.088 nM.

Regarding `O=C1CCc2c(Oc3ccc4c(c3)[C@H]3[C@H](NC(=O)c5ccc(CN6CCOCC6)c(C(F)(F)F)c5)[C@H]3O4)ccnc2N1` [Compound 1.7], the 50% inhibitory concentration (IC50) at B-Raf (V600E) was 36 nM; against C-Raf (Y340D/Y341D), 3.5 nM; against wild type B-Raf (IC50 Braf-WT […] ATP, […] ATP), 130 nM; at wild type B-Raf (setting [2]), 36 nM; against WT EGFR kinase domain it was 9.8 nM; against EGFR L858R kinase domain it was 16 nM. The molecule also had an IC50 in experiment [1] of 54 nM.
